The results in this text go back to the NIST ThermoML archive (doi:10.1021/je500332k).

Data set [1] is described as follows: refractive index (Na D-line) (dimensionless). The following applies: 298.2 K; 101.33 kPa; Liquid; Standard Abbe refractometry.
For data set [2] the following is noted: 298.2 K; 101.33 kPa; Liquid; Vibrating tube method.
The nature of data set [3]: Boiling temperature at pressure P. The following applies: 101.33 kPa; Liquid; Distillation.

Numbers after ± are expanded uncertainties.

Broadly, the refractive index is a measure of how strongly the sample bends light. Broadly, the mass density is the mass of a sample divided by its volume. For the molecule `CC(=O)O` [acetic acid], the refractive index in data set [1] is 1.3713 ± 0.0003. In data set [2], the mass density is on record as 1049.42 ± 0.26 kg/m3. In addition, the “Boiling temperature at pressure P” value in data set [3] was 118.1 ± 0.3 °C.
The matching figures for `COC(=O)OC` [dimethyl carbonate]: 1.3685 ± 0.0004, 1061.9 ± 0.38 kg/m3 and 90.08 ± 0.29 °C.
With `O` [water], the refractive index in data set [1] is 1.3324 ± 0.0003. In data set [3], the “Boiling temperature at pressure P” value came to 100.1 ± 0.3 °C.
